From ChEMBL document CHEMBL5303763, “Data for DCP probe BI-3802” (2023)
One block for each compound: values may come before it.

Legend:
[1] = target: B-cell CLL/lymphoma 6 member B protein (Homo sapiens, UniProt Q8N143); test: SPR (BCL6B), Ontario institute for cancer research
[2] = target: B-cell lymphoma 6 protein (Homo sapiens, UniProt P41182); test: SPR (BCL6), Ontario institute for cancer research
[3] = target: Zinc finger and BTB domain-containing protein 17 (Homo sapiens, UniProt Q13105); test: SPR (ZBTB17), Ontario institute for cancer research
[4] = target: Muscarinic acetylcholine receptor M3 (Homo sapiens) (UniProt P20309); conditions: Compound concentration 10.0 uM
[5] = target: D(1A) dopamine receptor (Homo sapiens) (UniProt P21728); conditions: Compound concentration 10.0 uM
D(1A) dopamine receptor (Homo sapiens), sequence (P21728 whole entry): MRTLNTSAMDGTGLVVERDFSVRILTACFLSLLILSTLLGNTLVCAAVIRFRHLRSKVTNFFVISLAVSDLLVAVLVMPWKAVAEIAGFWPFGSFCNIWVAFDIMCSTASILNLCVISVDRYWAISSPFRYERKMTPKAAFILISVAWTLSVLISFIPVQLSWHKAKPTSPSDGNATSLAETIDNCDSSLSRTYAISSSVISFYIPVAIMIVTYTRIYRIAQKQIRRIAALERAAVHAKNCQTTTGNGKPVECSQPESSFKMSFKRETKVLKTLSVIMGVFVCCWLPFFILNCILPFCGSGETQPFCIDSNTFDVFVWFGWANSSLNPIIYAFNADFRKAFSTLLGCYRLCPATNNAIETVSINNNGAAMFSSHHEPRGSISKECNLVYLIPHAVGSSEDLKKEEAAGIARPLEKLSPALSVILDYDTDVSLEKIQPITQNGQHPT

[6] = target: Histamine H3 receptor (Homo sapiens) (UniProt Q9Y5N1); conditions: Compound concentration 10.0 uM
Histamine H3 receptor (Homo sapiens), sequence (Q9Y5N1 whole entry): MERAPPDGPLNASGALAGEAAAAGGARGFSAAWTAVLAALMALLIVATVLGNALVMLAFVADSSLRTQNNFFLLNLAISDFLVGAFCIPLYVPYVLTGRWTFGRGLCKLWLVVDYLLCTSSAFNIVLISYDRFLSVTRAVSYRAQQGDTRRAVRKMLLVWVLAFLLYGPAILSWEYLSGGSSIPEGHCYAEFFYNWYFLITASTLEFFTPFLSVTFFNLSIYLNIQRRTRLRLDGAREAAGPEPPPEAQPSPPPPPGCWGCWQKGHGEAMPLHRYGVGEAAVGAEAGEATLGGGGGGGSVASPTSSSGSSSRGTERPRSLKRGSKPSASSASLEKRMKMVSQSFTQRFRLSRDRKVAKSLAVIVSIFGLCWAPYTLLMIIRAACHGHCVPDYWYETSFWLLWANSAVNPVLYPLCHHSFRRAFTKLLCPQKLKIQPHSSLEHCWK

[7] = target: Beta-3 adrenergic receptor (Homo sapiens) (UniProt P13945); conditions: Compound concentration 10.0 uM
Beta-3 adrenergic receptor (Homo sapiens), sequence (P13945 whole entry, looked up): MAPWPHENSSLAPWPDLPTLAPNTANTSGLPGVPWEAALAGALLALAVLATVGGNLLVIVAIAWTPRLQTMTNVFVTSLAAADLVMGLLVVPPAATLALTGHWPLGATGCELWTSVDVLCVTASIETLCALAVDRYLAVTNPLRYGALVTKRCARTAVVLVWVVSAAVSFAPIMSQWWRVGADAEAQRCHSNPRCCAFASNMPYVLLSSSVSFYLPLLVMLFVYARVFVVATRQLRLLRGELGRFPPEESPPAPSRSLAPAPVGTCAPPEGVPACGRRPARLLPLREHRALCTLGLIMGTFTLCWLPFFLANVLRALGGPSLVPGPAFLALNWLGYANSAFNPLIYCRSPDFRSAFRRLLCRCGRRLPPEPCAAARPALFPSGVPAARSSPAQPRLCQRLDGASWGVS

[8] = target: 5-hydroxytryptamine receptor 5A (Homo sapiens) (UniProt P47898); conditions: Compound concentration 10.0 uM
5-hydroxytryptamine receptor 5A (Homo sapiens), sequence (P47898 whole entry): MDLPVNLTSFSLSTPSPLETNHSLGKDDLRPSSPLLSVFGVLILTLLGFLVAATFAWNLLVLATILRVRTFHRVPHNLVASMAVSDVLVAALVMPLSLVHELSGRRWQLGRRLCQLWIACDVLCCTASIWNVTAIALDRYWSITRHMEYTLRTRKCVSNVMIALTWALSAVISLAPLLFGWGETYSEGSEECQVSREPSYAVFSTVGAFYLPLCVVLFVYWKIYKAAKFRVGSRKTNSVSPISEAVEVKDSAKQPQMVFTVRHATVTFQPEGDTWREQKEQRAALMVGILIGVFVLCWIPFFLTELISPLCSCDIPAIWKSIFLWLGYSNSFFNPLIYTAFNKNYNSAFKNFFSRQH

[9] = target: Rho-associated protein kinase 2 (Homo sapiens) (UniProt O75116); test: ROCK2 Invitrogen Lab (UK) kinase screen (BI); conditions: Compound concentration 1.0 uM
[10] = target: Leucine-rich repeat serine/threonine-protein kinase 2 (Homo sapiens) (UniProt Q5S007); test: LRRK2 Invitrogen Lab (UK) kinase screen (BI); conditions: Compound concentration 1.0 uM
[11] = target: D(4) dopamine receptor (Homo sapiens) (UniProt P21917); conditions: Compound concentration 10.0 uM
[12] = target: High affinity nerve growth factor receptor (Homo sapiens) (UniProt P04629); test: NTRK1 Invitrogen Lab (UK) kinase screen (BI); conditions: Compound concentration 1.0 uM
[13] = target: Dual specificity protein kinase CLK1 (Homo sapiens) (UniProt P49759); test: CLK1 Invitrogen Lab (UK) kinase screen (BI); conditions: Compound concentration 1.0 uM
[14] = target: Tyrosine-protein kinase Lyn (Homo sapiens) (UniProt P07948); test: LYN A Invitrogen Lab (UK) kinase screen (BI); conditions: Compound concentration 1.0 uM
[15] = target: D(3) dopamine receptor (Homo sapiens) (UniProt P35462); conditions: Compound concentration 10.0 uM
D(3) dopamine receptor (Homo sapiens), sequence (P35462 whole entry): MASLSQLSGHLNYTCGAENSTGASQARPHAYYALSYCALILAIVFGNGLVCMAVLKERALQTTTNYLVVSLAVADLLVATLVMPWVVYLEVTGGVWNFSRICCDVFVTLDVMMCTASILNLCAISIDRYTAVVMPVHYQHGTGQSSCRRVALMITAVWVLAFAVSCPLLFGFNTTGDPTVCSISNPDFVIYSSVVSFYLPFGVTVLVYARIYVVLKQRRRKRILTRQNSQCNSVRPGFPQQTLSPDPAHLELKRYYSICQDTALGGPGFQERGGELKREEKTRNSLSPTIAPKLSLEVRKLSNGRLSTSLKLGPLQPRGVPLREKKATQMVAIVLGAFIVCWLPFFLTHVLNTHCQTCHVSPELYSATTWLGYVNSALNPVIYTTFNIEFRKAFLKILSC

[16] = target: Epidermal growth factor receptor (Homo sapiens) (UniProt P00533); test: EGFR Invitrogen Lab (UK) kinase screen (BI); conditions: Compound concentration 1.0 uM
[17] = target: MAP kinase-activated protein kinase 2 (Homo sapiens) (UniProt P49137); test: MAPKAPK2 Invitrogen Lab (UK) kinase screen (BI); conditions: Compound concentration 1.0 uM
[18] = target: 5-hydroxytryptamine receptor 2C (Homo sapiens) (UniProt P28335); conditions: Compound concentration 10.0 uM
5-hydroxytryptamine receptor 2C (Homo sapiens), sequence (P28335 whole entry): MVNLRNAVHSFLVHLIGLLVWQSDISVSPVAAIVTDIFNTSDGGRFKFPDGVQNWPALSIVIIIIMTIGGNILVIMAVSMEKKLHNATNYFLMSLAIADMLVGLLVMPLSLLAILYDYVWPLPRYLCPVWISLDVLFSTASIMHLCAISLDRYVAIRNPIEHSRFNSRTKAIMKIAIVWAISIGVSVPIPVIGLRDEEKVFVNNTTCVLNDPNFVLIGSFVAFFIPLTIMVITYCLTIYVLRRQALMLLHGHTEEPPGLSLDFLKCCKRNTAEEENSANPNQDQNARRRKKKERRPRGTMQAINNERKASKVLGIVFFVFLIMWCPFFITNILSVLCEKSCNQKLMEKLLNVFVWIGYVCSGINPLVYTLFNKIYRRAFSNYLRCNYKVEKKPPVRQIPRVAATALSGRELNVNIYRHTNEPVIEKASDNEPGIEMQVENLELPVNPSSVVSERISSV

[19] = target: Glycogen synthase kinase-3 beta (Homo sapiens) (UniProt P49841); test: GSK3B Invitrogen Lab (UK) kinase screen (BI); conditions: Compound concentration 1.0 uM
[20] = target: Dual specificity mitogen-activated protein kinase kinase 6 (Homo sapiens) (UniProt P52564); test: MAP2K6 Invitrogen Lab (UK) kinase screen (BI); conditions: Compound concentration 1.0 uM
[21] = target: Mitogen-activated protein kinase 3 (Homo sapiens) (UniProt P27361); test: MAPK3 Invitrogen Lab (UK) kinase screen (BI); conditions: Compound concentration 1.0 uM
[22] = target: Sigma non-opioid intracellular receptor 1 (Homo sapiens) (UniProt Q99720); conditions: Compound concentration 10.0 uM
[23] = target: Mu-type opioid receptor (Homo sapiens) (UniProt P35372); conditions: Compound concentration 10.0 uM
Mu-type opioid receptor (Homo sapiens), sequence (P35372 whole entry): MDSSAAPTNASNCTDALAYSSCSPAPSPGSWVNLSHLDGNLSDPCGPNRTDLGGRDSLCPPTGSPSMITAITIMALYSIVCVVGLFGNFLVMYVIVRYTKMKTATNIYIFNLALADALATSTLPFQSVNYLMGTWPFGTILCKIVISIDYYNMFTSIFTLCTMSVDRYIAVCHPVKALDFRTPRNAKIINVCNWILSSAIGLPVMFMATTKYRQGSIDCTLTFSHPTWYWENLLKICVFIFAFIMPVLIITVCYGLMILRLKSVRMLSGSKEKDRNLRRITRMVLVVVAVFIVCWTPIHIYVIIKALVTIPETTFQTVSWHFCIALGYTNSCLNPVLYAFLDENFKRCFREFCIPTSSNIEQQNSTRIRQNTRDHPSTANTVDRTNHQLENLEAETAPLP

[24] = target: Vascular endothelial growth factor receptor 2 (Homo sapiens) (UniProt P35968); test: KDR Invitrogen Lab (UK) kinase screen (BI); conditions: Compound concentration 1.0 uM
[25] = target: Serine/threonine-protein kinase PLK1 (Homo sapiens) (UniProt P53350); test: PLK1 Invitrogen Lab (UK) kinase screen (BI); conditions: Compound concentration 1.0 uM
[26] = target: Dual specificity mitogen-activated protein kinase kinase 1 (Homo sapiens) (UniProt Q02750); test: MAP2K1 Invitrogen Lab (UK) kinase screen (BI); conditions: Compound concentration 1.0 uM
[27] = target: Muscarinic acetylcholine receptor M4 (Homo sapiens) (UniProt P08173); conditions: Compound concentration 10.0 uM
Muscarinic acetylcholine receptor M4 (Homo sapiens), sequence (P08173 whole entry): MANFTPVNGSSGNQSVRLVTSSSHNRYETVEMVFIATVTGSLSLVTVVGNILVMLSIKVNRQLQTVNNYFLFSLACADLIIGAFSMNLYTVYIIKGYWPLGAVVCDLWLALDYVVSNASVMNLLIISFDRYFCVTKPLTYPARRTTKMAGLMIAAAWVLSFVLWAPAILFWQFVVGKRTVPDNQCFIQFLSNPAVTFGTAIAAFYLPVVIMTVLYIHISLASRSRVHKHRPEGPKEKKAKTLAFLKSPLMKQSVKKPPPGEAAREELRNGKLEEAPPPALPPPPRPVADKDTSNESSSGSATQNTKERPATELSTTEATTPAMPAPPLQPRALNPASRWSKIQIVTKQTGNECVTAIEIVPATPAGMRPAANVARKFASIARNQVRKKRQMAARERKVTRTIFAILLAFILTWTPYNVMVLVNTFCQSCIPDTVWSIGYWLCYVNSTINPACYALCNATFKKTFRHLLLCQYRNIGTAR

[28] = target: 3-phosphoinositide-dependent protein kinase 1 (Homo sapiens) (UniProt O15530); test: PDK1 Invitrogen Lab (UK) kinase screen (BI); conditions: Compound concentration 1.0 uM
[29] = target: Ribosomal protein S6 kinase alpha-3 (Homo sapiens) (UniProt P51812); test: RPS6KA3 Invitrogen Lab (UK) kinase screen (BI); conditions: Compound concentration 1.0 uM
[30] = target: Delta-type opioid receptor (Homo sapiens) (UniProt P41143); conditions: Compound concentration 10.0 uM
[31] = target: Sigma intracellular receptor 2 (Homo sapiens) (UniProt Q5BJF2); conditions: Compound concentration 10.0 uM
Sigma intracellular receptor 2 (Homo sapiens), sequence (Q5BJF2 whole entry): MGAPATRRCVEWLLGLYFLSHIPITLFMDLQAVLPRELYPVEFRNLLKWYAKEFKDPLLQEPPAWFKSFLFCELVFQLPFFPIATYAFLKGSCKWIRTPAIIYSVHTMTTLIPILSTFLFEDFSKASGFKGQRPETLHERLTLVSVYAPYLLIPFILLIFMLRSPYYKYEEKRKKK

[32] = target: Ribosomal protein S6 kinase alpha-4 (Homo sapiens) (UniProt O75676); test: RPS6KA4 Invitrogen Lab (UK) kinase screen (BI); conditions: Compound concentration 1.0 uM
[33] = target: 5-hydroxytryptamine receptor 1B (Homo sapiens) (UniProt P28222); conditions: Compound concentration 10.0 uM
[34] = target: Sodium-dependent dopamine transporter (Homo sapiens) (UniProt Q01959); conditions: Compound concentration 10.0 uM
[35] = target: 5-hydroxytryptamine receptor 1D (Homo sapiens) (UniProt P28221); conditions: Compound concentration 10.0 uM
5-hydroxytryptamine receptor 1D (Homo sapiens), sequence (P28221 whole entry): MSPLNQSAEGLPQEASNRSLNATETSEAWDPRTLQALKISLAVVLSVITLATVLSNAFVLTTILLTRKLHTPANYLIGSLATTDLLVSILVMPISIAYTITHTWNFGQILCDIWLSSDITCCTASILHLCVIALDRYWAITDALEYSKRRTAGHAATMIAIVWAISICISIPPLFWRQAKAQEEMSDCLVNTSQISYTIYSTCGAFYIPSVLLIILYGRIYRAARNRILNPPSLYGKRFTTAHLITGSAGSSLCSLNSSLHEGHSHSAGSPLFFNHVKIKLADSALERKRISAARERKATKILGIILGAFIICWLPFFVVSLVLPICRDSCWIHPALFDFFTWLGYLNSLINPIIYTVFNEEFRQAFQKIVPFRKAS

[36] = target: T1, Alpha-2A adrenergic receptor (Homo sapiens) (UniProt P08913); conditions: Compound concentration 10.0 uM
T1 sequence (whole entry): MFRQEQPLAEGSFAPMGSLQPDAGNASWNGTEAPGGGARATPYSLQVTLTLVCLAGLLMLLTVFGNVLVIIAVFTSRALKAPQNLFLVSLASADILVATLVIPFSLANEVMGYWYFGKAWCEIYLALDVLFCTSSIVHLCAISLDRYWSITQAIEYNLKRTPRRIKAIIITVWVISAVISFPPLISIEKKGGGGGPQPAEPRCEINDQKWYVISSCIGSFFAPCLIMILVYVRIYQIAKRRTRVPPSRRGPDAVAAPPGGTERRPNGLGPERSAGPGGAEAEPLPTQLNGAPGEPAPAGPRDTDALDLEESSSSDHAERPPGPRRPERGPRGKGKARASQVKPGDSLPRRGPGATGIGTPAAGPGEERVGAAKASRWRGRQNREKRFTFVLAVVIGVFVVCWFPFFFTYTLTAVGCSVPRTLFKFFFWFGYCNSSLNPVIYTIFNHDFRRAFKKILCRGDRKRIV

[37] = target: Histamine H1 receptor (Homo sapiens) (UniProt P35367); conditions: Compound concentration 10.0 uM
Histamine H1 receptor (Homo sapiens), sequence (P35367 whole entry): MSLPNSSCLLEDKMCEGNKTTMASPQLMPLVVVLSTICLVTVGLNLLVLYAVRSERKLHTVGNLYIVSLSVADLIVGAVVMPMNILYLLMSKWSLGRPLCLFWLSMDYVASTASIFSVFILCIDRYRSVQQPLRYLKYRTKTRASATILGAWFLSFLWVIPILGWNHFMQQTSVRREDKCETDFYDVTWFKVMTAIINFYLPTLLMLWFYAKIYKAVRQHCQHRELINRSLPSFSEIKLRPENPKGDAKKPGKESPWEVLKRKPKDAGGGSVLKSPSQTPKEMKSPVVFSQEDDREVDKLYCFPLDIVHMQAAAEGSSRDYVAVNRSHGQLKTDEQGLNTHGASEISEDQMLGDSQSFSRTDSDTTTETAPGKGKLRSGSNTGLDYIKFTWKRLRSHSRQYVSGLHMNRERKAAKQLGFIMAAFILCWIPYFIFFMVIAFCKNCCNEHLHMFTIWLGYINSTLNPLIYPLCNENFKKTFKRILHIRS

[38] = target: Ribosomal protein S6 kinase alpha-5 (Homo sapiens) (UniProt O75582); test: RPS6KA5 Invitrogen Lab (UK) kinase screen (BI); conditions: Compound concentration 1.0 uM
[39] = target: Kappa-type opioid receptor (Homo sapiens) (UniProt P41145); conditions: Compound concentration 10.0 uM
Kappa-type opioid receptor (Homo sapiens), sequence (P41145 whole entry): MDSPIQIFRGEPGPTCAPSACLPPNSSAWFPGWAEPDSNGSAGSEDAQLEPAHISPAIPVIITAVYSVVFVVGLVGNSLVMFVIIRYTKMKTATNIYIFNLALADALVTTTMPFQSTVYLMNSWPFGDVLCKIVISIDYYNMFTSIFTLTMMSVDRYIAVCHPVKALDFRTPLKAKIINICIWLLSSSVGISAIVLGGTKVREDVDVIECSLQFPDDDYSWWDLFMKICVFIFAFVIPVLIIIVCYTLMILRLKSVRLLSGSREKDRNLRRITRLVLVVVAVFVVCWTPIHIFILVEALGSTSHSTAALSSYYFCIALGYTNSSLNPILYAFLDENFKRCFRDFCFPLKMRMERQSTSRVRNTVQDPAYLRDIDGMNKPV

- Kd [1]: No binding
- Kd [2]: 1.41 µM (not active)
- Kd [3]: No binding
Compound: C[C@@H]1C[C@H](C)CN(c2ncc(Cl)c(Nc3ccc4c(c3)cc(OC(C)(C)C(=O)O)c(=O)n4C)n2)C1

- inhibition [4]: -2.43%
- inhibition [5]: -4.07%
- inhibition [6]: 12.7%
- inhibition [7]: -4.02%
- inhibition [8]: 0.2%
- residual activity [9]: 100%
- residual activity [10]: 78%
- inhibition [11]: -9.6%
- residual activity [12]: 83%
- residual activity [13]: 107%
- residual activity [14]: 104%
- inhibition [15]: 11.6%
- residual activity [16]: 88%
- residual activity [17]: 102%
- inhibition [18]: 0.15%
- residual activity [19]: 93%
- residual activity [20]: 84%
- residual activity [21]: 105%
- inhibition [22]: 19.9%
- inhibition [23]: 24.5%
- residual activity [24]: 111%
- residual activity [25]: 92%
- residual activity [26]: 71%
- inhibition [27]: -1.45%
- residual activity [28]: 98%
- residual activity [29]: 89%
- inhibition [30]: 13.3%
- inhibition [31]: 17.1%
- residual activity [32]: 99%
- inhibition [33]: 8.61%
- inhibition [34]: 12.6%
- inhibition [35]: 13.7%
- inhibition [36]: 5.49%
- inhibition [37]: 6.31%
- residual activity [38]: 96%
- inhibition [39]: 33.5%
Compound: CNC(=O)COc1cc2cc(Nc3nc(N4C[C@H](C)C[C@H](C)C4)ncc3Cl)ccc2n(C)c1=O
